Measurements reported in ChEMBL document CHEMBL1201862, “PubChem BioAssay data set” (2004).
Calls of active or inactive are those of the source.

How the values were obtained:
Major prion protein = Major prion protein (Homo sapiens, UniProt P04156); type: functional, cell-based
cells [1] = assay: cells
[2] = Late stage assay provider results from the probe development effort to identify selective inhibitors of heat shock protein 90 (HSP90): Absorbance-based cell proliferation assay in MCF7 cells.; type: functional
[3] = Late stage assay provider results from the probe development effort to identify selective inhibitors of heat shock protein 90 (HSP90): Absorbance-based cell proliferation assay in SKBR3 cells.; type: functional; settings: SK-BR-3
[4] = biological target: T1, Nuclear receptor subfamily 0 group B member 1 (Homo sapiens, UniProt P51843); type: functional, cell-based;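 also: HEK293T cells transfected with SF-1 and DAX-1 plus StAR promoter luciferase reporter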
T1 sequence (P51843 whole entry): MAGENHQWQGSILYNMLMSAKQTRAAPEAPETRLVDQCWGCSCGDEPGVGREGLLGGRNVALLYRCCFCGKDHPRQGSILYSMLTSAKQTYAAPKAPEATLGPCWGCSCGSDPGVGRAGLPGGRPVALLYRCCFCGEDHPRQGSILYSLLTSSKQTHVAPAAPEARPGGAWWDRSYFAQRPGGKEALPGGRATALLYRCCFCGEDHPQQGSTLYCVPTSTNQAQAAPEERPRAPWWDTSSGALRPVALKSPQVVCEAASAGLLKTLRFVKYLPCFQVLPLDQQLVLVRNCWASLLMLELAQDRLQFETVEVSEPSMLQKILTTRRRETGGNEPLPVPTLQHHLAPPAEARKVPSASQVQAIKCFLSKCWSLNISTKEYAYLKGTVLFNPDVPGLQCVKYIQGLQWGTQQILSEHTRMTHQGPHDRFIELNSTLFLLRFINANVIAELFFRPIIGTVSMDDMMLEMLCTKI

cells [5] = type: functional, cell-based
[6] = Luminescence Cell-Based Dose Confirmation HTS to Identify Inhibitors of Platelet Dense Granule Release. [Related pubchem assays: 1663 (Primary HTS), 1678 (Summary of Project)]; type: functional
[7] = Luminescence Cell-Based Dose Response HTS to Identify Inhibitors of 5'UTR Stem-Loop Driven Prion Protein mRNA Translation in H4 Neuroglioblastoma Cells. [Related pubchem assays: 1827 (Project Summary), 1813 (Primary HTS)]; type: functional
[8] = biological target: Luciferin 4-monooxygenase (Photinus pyralis, UniProt P08659); assay: firefly luciferase enzyme inhibitors, dose response, biochemical, luminescence (AID 1891)
[9] = inhibitors of SNCA 5'UTR-driven reporter translation, confirmation, H4 neuroglioma cells, luminescence (AID 1988); type: functional, cell-based
Protein skinhead-1 = biological target: T2, Protein skinhead-1 (Caenorhabditis elegans, UniProt P34707); type: functional
T2 sequence (P34707 whole entry): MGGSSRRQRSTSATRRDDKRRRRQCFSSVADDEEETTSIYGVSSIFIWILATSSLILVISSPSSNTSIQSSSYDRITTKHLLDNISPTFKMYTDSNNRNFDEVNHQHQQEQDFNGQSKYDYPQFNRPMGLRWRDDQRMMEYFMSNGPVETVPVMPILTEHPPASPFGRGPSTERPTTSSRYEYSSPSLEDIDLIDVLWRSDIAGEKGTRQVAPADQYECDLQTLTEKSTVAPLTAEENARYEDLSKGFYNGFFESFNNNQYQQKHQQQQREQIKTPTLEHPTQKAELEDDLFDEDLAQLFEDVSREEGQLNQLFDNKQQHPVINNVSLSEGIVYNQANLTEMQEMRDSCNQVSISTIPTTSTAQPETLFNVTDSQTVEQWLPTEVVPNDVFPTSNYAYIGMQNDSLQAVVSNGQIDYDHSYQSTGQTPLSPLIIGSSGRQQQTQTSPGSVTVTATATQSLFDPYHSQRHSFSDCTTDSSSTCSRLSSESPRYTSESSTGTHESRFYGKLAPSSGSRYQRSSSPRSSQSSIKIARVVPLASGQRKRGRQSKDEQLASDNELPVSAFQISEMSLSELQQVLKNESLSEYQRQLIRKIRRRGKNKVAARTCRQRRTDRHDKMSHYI

Caspase-6 = biological target: T3, Caspase-6 (Homo sapiens, UniProt P55212); assay: human caspase-6 inhibitors, dose response, biochemical, VEID-R110 fluorescence, cherry-pick (AID 720632)
T3 sequence (P55212 whole entry): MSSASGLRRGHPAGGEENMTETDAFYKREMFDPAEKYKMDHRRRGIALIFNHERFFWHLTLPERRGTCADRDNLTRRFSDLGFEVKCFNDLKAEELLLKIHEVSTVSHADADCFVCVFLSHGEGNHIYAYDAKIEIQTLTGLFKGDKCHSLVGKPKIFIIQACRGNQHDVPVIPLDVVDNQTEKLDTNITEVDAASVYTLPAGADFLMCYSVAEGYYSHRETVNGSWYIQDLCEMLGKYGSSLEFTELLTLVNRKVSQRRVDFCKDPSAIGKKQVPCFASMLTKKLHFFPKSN

Caspase-7 = Caspase-7 (Homo sapiens, UniProt P55210); assay: human caspase-7 inhibitors, dose response, selectivity assay for caspase-6 inhibitor project, biochemical, DEVD-R110 fluorescence, cherry-pick (AID 743295)
HEK293 [10] = assay: cells; settings: Homo sapiens
[11] = DNA binding of candidate compounds, dose response, artefact control for RAD54 inhibitor project, biochemical, fluorescence polarization, cherry-pick (AID 651673); type: functional
cells [12] = type: functional, cell-based; remark: listed apart in the source
INS1 = assay: beta cell apoptosis inhibitors, cytokine rescue, dose response, luminescence, retest (AID 449756); type: functional, cell-based; settings: Rattus norvegicus, INS1;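 also: cell death triggered by IL-1 beta plus TNF-alpha plus IFN-gamma mixture; protective hits raise ATP signal compared with cytokine alone wells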
[13] = cytotoxicity toward NIH3T3 fibroblasts, dose response, counter-screen, cell-based, ATP luminescence, mouse fibroblasts (AID 2010); type: functional;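 also: cells exposed to compound for about 90 hours before reading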
[14] = biological target: T4, DNA repair protein RAD52 homolog (Homo sapiens, UniProt P43351); type: functional, biochemical
T4 sequence (P43351 whole entry): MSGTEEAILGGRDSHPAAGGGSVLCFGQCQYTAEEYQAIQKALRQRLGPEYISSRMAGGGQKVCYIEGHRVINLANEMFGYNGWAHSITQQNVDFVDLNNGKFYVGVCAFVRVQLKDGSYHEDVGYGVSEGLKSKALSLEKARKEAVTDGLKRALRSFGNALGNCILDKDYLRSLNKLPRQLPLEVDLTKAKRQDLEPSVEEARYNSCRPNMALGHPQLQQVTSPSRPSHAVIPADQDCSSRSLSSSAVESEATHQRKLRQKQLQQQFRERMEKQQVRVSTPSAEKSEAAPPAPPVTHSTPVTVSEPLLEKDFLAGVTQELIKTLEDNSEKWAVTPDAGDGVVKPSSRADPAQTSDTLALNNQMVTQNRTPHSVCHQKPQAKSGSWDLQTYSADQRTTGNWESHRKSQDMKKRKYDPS

cells [15] = type: functional, cell-based; remark: listed apart in the source
[16] = biological target: SWI/SNF-related matrix-associated actin-dependent regulator of chromatin subfamily A member 2 (Homo sapiens, UniProt P51531); assay: Luminescence-based cell-based high throughput dose response assay to identify activators of the function of SWI/SNF related, matrix associated, actin dependent regulator of chromatin, subfamily a, member 2 (SMARCA2, BRM).; type: functional
[17] = biological target: T5, DNA repair and recombination protein RAD54-like (Homo sapiens, UniProt Q92698); assay: inhibitors of human RAD54 branch migration, confirmation, biochemical, fluorescence, cherry-picked samples, dose series (AID 651657); type: functional
T5 sequence (Q92698 whole entry): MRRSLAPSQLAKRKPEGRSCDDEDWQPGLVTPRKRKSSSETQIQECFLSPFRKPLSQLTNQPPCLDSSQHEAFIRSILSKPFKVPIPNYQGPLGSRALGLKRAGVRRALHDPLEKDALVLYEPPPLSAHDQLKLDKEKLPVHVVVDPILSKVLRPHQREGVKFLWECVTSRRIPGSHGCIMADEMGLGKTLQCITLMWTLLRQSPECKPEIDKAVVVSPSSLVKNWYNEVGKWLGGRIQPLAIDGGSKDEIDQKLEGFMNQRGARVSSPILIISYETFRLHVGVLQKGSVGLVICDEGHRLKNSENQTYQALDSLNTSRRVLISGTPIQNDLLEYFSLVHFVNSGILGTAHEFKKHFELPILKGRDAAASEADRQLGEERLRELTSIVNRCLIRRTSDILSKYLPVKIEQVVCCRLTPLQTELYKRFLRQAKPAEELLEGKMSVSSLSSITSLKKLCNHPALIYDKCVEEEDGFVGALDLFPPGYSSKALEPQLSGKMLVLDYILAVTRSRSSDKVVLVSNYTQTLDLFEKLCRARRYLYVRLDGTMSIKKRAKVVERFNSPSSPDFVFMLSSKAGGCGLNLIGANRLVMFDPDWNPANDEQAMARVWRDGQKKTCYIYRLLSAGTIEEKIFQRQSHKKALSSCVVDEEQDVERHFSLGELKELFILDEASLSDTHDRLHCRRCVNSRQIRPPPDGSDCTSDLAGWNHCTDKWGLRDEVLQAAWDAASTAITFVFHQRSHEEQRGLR

[18] = biological target: T6, Short transient receptor potential channel 4 (Mus musculus, UniProt Q9QUQ5); assay: mouse TRPC4 channel inhibitors, dose response, cell-based, HEK293 TRPC4/mu-opioid, Fluo-4 calcium (AID 434942); type: functional;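 also: potency of inhibitors blocking the TRPC4 calcium response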
T6 sequence (Q9QUQ5 whole entry): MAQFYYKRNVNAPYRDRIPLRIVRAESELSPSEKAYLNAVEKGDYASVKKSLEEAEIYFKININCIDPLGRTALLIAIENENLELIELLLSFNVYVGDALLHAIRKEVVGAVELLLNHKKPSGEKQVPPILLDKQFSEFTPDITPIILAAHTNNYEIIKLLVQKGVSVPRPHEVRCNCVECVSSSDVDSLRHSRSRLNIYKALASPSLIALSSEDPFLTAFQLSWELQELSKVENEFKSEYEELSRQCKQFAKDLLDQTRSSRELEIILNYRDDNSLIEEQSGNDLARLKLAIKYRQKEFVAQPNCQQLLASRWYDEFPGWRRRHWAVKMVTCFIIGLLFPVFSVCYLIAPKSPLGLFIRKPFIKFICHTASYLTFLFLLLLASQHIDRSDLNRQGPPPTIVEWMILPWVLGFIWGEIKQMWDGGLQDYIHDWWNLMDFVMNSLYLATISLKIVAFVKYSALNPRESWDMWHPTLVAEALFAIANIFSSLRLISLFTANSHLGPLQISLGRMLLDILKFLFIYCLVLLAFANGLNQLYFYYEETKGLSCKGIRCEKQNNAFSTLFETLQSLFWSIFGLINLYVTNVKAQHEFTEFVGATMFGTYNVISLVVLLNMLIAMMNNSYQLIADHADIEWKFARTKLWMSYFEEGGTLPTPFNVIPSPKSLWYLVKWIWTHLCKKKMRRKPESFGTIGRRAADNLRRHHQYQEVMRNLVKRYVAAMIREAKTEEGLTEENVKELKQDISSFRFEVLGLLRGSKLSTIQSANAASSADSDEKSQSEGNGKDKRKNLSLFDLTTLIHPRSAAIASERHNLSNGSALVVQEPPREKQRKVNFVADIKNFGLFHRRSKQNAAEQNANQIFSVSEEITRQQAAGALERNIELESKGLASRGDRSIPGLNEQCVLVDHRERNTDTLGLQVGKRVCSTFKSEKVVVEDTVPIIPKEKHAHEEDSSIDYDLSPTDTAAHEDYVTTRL

[19] = inhibitors of intracellular T. cruzi replication, confirmation, NIH3T3 host cells, beta-gal luminescence (AID 2044); type: functional, cell-based;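 also: intracellular parasites grown in NIH/3T3 mouse fibroblasts as host cells; luminescent beta-galactosidase reporter signal from transgenic T. cruzi replicating inside host cells; inhibitors lower the luminescence signal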
HEK293 [20] = assay: cells; settings: Homo sapiens; remark: listed apart in the source
[21] = Counterscreen for activators of the function of SWI/SNF related, matrix associated, actin dependent regulator of chromatin, subfamily a, member 2 (SMARCA2, BRM): Luminescence-based cell-based high throughput dose response assay to identify non-selective compounds using the VP16 reporter assay.; type: functional
Galanin receptor type 3 = Galanin receptor type 3 (Homo sapiens, UniProt O60755); assay: Fluorescence-based cell-based primary high throughput dose response assay to identify antagonists of the Galanin Receptor 3 (GalR3).; type: functional
cells [22] = type: functional, cell-based; settings: HEK-CNG

CC(=O)c1ccc(CCCCCCCCCC(=O)O)s1
IC50 (Major prion protein): 5.71 µM (active)
IC50 (cells [1]): > 138 µM (inactive)

O=C(NCc1ccco1)c1coc(=O)c(Br)c1
IC50 [2]: 4.8 µM (active)
IC50 [3]: 27.8 µM (inactive)

O=C(/C=C\Nc1ccccc1Br)c1ccc2c(c1)OCO2
IC50 [4]: > 0.0926 µM (active)
IC50 (cells [5]): > 67.5 µM (inactive)

Cc1ccc(N/C=C/C(=O)c2cccs2)cc1
EC50 [6]: 6.06 µM (active)
EC50 [7]: 9.4 µM (active)
EC50 [8]: 1.17 µM (active)
IC50 [4]: > 0.278 µM (active)
EC50 [9]: 9.77 µM (active)
IC50 (Protein skinhead-1): 39 µM (active)
IC50 (cells [5]): > 67.5 µM (inactive)

O=C(Nc1ccc(S(=O)(=O)Nc2cnc3ccccc3n2)cc1)c1ccc(Cl)c([N+](=O)[O-])c1
AC50 (Caspase-6): 0.905 µM (active)
AC50 (Caspase-7): > 70 µM (inactive)

OCCCNc1c2ccccc2nc2ccccc12
EC50 (HEK293 [10]): > 2.21 µM (active)
AC50 [11]: 55.2 µM (active)
EC50 (cells [12]): > 350 µM (not active)
AC50 (INS1): 2.44 µM (active)
EC50 [13]: 7.34 µM (active)
AC50 [14]: 3.08 µM (active)
EC50 (cells [15]): > 350 µM (not active)
EC50 [16]: > 3.38 µM (active)
AC50 [17]: 3.37 µM (active)
EC50 [18]: 6.68 µM (active)
EC50 [19]: 0.266 µM (active)
EC50 (HEK293 [20]): > 59.7 µM (inactive)
EC50 [21]: > 91.1 µM (inactive)

CCOC(=O)c1c(O)nc(C)c(Cl)c1O
IC50 (Galanin receptor type 3): > 29.9 µM (inactive)
EC50 (cells [22]): > 29.9 µM (inactive)

N#Cc1cc2cc(OCCc3ccc(F)cc3)ccc2oc1=O
IC50 [2]: 96.5 µM (inactive)
IC50 [3]: 16.9 µM (inactive)

COC(=O)CSc1nc(-c2ccccc2)nc2ccccc12
IC50 (Major prion protein): 1.31 µM (active)
IC50 (cells [1]): > 138 µM (inactive)
